According to PubChem BioAssay AID1259407 (Chemical Carcinogenesis Research Information System (CCRIS), 2018):
Activity calls are given as the source filed them. The rule behind the calls is not given here.

Test system: CCRIS mutagenicity, Ames/micronucleus/aberration tests
Assay: CCRIS mutagenicity studies
[1] = Test System: Ames Salmonella typhimurium, Strain/Indicator: TA98, Metabolic Activation: None, Method: Preincubation
[2] = Test System: Ames Salmonella typhimurium, Strain/Indicator: TA100, Metabolic Activation: None, Method: Preincubation
[3] = Test System: Ames Salmonella typhimurium, Strain/Indicator: TA1535, Metabolic Activation: None, Method: Preincubation
[4] = Test System: Ames Salmonella typhimurium, Strain/Indicator: TA1537, Metabolic Activation: None, Method: Preincubation

CC(=O)Nc1ccc(CC(=O)O)cc1
mutagenic call (Test System: AMES SALMONELLA TYPHIMURIUM, Strain/Indicator: TA98, Metabolic Activation: NONE): inactive; negative | mutagenic call (Test System: AMES SALMONELLA TYPHIMURIUM, Strain/Indicator: TA98, Metabolic Activation: RAT, LIVER, S-9, AROCLOR 1254): inactive; negative | mutagenic call (Test System: AMES SALMONELLA TYPHIMURIUM, Strain/Indicator: TA100, Metabolic Activation: NONE): inactive; negative | mutagenic call (Test System: AMES SALMONELLA TYPHIMURIUM, Strain/Indicator: TA100, Metabolic Activation: RAT, LIVER, S-9, AROCLOR 1254): inactive; negative | mutagenic call (Test System: AMES SALMONELLA TYPHIMURIUM, Strain/Indicator: TA1535, Metabolic Activation: NONE): inactive; negative | mutagenic call (Test System: AMES SALMONELLA TYPHIMURIUM, Strain/Indicator: TA1535, Metabolic Activation: RAT, LIVER, S-9, AROCLOR 1254): inactive; negative | mutagenic call (Test System: AMES SALMONELLA TYPHIMURIUM, Strain/Indicator: TA1537, Metabolic Activation: NONE): inactive; negative | mutagenic call (Test System: AMES SALMONELLA TYPHIMURIUM, Strain/Indicator: TA1537, Metabolic Activation: RAT, LIVER, S-9, AROCLOR 1254): inactive; negative | mutagenic call (Test System: AMES SALMONELLA TYPHIMURIUM, Strain/Indicator: TA1538, Metabolic Activation: NONE): inactive; negative | mutagenic call (Test System: AMES SALMONELLA TYPHIMURIUM, Strain/Indicator: TA1538, Metabolic Activation: RAT, LIVER, S-9, AROCLOR 1254): inactive; negative | mutagenic call (Test System: E. COLI, Strain/Indicator: WP2, Metabolic Activation: NONE): inactive; negative | mutagenic call (Test System: E. COLI, Strain/Indicator: WP2, Metabolic Activation: RAT, LIVER, S-9, AROCLOR 1254): inactive; negative | mutagenic call (Test System: E. COLI, Strain/Indicator: WP2 UVRA, Metabolic Activation: NONE): inactive; negative | mutagenic call (Test System: E. COLI, Strain/Indicator: WP2 UVRA, Metabolic Activation: RAT, LIVER, S-9, AROCLOR 1254): inactive; negative

O=NN1CN(N=O)CN(N=O)C1
mutagenic call (Test System: Ames Salmonella typhimurium, Strain/Indicator: TA97a, Metabolic Activation: None, Method: Preincubation): inactive; negative | mutagenic call (Test System: Ames Salmonella typhimurium, Strain/Indicator: TA97a, Metabolic Activation: Rat, Liver, S-9, Aroclor 1254, Method: Preincubation): active; positive | mutagenic call (Test System: Ames Salmonella typhimurium, Strain/Indicator: TA98, Metabolic Activation: Rat, Liver, S-9, Aroclor 1254, Method: Preincubation): inactive; negative | mutagenic call (Test System: Ames Salmonella typhimurium, Strain/Indicator: TA100, Metabolic Activation: Rat, Liver, S-9, Aroclor 1254, Method: Preincubation): inactive; negative | mutagenic call (Test System: Ames Salmonella typhimurium, Strain/Indicator: TA102, Metabolic Activation: Rat, Liver, S-9, Aroclor 1254, Method: Preincubation): active; positive

CN1CCc2cc3c(c4c2[C@H]1[C@H](O)c1ccccc1-4)OCO3
mutagenic call (Test System: AMES SALMONELLA TYPHIMURIUM, Strain/Indicator: TA98, Metabolic Activation: RAT, LIVER, S-9, PHENOBARBITAL AND BETA-NAPHTHOFLAVONE, Method: PREINCUBATION): active; positive | mutagenic call (Test System: AMES SALMONELLA TYPHIMURIUM, Strain/Indicator: TA100, Metabolic Activation: RAT, LIVER, S-9, PHENOBARBITAL AND BETA-NAPHTHOFLAVONE, Method: PREINCUBATION): active; positive

CCCCN(C[C@@H](CO)Cc1ccccc1)N=O
mutagenic call (Test System: AMES SALMONELLA TYPHIMURIUM, Strain/Indicator: TA100, Metabolic Activation: NONE, Method: PREINCUBATION): inactive; negative | mutagenic call (Test System: AMES SALMONELLA TYPHIMURIUM, Strain/Indicator: TA100, Metabolic Activation: RAT, LIVER, S-9, PCB, Method: PREINCUBATION): active; positive

O=[N+]([O-])c1ccc2c3ccccc3c3ccc([N+](=O)[O-])c4ccc1c2c43
mutagenic call (End Point: In vitro micronucleus, Test System: CHL/IU cells, Metabolic Activation: None): active; positive | mutagenic call (End Point: In vitro micronucleus, Test System: HepG2 cells, Metabolic Activation: None): active; positive | mutagenic call (Test System: Chinese hamster lung cells/HPRT locus, Strain/Indicator: CHL/IU, Metabolic Activation: None): active; positive | mutagenic call (Test System: Human liver cells/HPRT locus, Strain/Indicator: HepG2, Metabolic Activation: None): active; positive

Cc1c(N)nc([C@H](CC(N)=O)NC[C@H](N)C(N)=O)nc1C(=O)N[C@H](C(=O)N[C@H](C)[C@@H](O)[C@H](C)C(=O)N[C@H](C(=O)NCCc1nc(-c2nc(C(=O)NCCCNCCCN=C(N)CC3CCC(Cl)CC3)cs2)cs1)[C@@H](C)O)[C@@H](O[C@@H]1O[C@@H](CO)[C@@H](O)[C@H](O)[C@@H]1O[C@H]1O[C@H](CO)[C@@H](O)[C@H](OC(N)=O)[C@@H]1O)c1cnc[nH]1 (some centres undefined)
mutagenic call (Test System: AMES SALMONELLA TYPHIMURIUM, Strain/Indicator: TA94, Metabolic Activation: NONE, Method: PREINCUBATION): active; positive | mutagenic call (Test System: AMES SALMONELLA TYPHIMURIUM, Strain/Indicator: TA102, Metabolic Activation: NONE, Method: PREINCUBATION): active; positive

CNCC(O)c1ccc(O)c(O)c1 (centres undefined)
mutagenic call (Test System: AMES SALMONELLA TYPHIMURIUM, Strain/Indicator: TA102, Metabolic Activation: NONE, Method: STANDARD PLATE): inactive; negative | mutagenic call (Test System: AMES SALMONELLA TYPHIMURIUM, Strain/Indicator: TA2638, Metabolic Activation: NONE, Method: STANDARD PLATE): inactive; negative | mutagenic call (Test System: E. COLI, Strain/Indicator: WP2 (PKM101), Metabolic Activation: NONE, Method: STANDARD PLATE): inactive; negative | mutagenic call (Test System: E. COLI, Strain/Indicator: WP2 UVRA (PKM101), Metabolic Activation: NONE, Method: STANDARD PLATE): inactive; negative

CC(=NC#N)N(C)Cc1ccc(Cl)nc1
mutagenic call (End Point: In vitro chromosomal aberrations, Test System: Human peripheral lymphocytes, Metabolic Activation: None): active; positive (structural changes), 20% purity (commercial product mosetam 20 sp). | mutagenic call (End Point: In vitro micronucleus, Test System: Human peripheral lymphocytes, Metabolic Activation: None): active; positive, 20% purity (commercial product mosetam 20 sp). | mutagenic call (End Point: In vivo micronucleus, Test System: Bone marrow polychromatic erythrocytes, Species: Mouse, Strain/Sex: CD-1/Female, Route: Gavage): inactive; negative | mutagenic call (End Point: In vivo micronucleus, Test System: Bone marrow polychromatic erythrocytes, Species: Mouse, Strain/Sex: CD-1/Male, Route: Gavage): inactive; negative | mutagenic call [1]: inactive; negative | mutagenic call (Test System: Ames Salmonella typhimurium, Strain/Indicator: TA98, Metabolic Activation: Rodent, Liver, S-9, Method: Preincubation): inactive; negative | mutagenic call [2]: inactive; negative | mutagenic call (Test System: Ames Salmonella typhimurium, Strain/Indicator: TA100, Metabolic Activation: Rodent, Liver, S-9, Method: Preincubation): inactive; negative | mutagenic call [3]: inactive; negative | mutagenic call (Test System: Ames Salmonella typhimurium, Strain/Indicator: TA1535, Metabolic Activation: Rodent, Liver, S-9, Method: Preincubation): inactive; negative | mutagenic call [4]: inactive; negative | mutagenic call (Test System: Ames Salmonella typhimurium, Strain/Indicator: TA1537, Metabolic Activation: Rodent, Liver, S-9, Method: Preincubation): inactive; negative | mutagenic call (Test System: E. coli, Strain/Indicator: WP2 uvrA, Metabolic Activation: None, Method: Preincubation): inactive; negative | mutagenic call (Test System: E. coli, Strain/Indicator: WP2 uvrA, Metabolic Activation: Rodent, Liver, S-9, Method: Preincubation): inactive; negative | mutagenic call (Test System: UDS F344 male rat hepatocytes, Strain/Indicator: THY INCORP, Method: Autoradiography): inactive; negative

C
mutagenic call (End Point: In vitro chromosomal aberrations, Test System: Chinese hamster V79 lung fibroblast cells, Metabolic Activation: Rat, Liver, S9, Aroclor 1254): inactive; negative. material tested was baytubes, multi-walled carbon-nanotubes. | mutagenic call [1]: inactive; negative. material tested was baytubes, multi-walled carbon-nanotubes. | mutagenic call (Test System: Ames Salmonella typhimurium, Strain/Indicator: TA98, Metabolic Activation: Rat, Liver, S9, Aroclor 1254, Method: Preincubation): inactive; negative. material tested was baytubes, multi-walled carbon-nanotubes. | mutagenic call [2]: inactive; negative. material tested was baytubes, multi-walled carbon-nanotubes. | mutagenic call (Test System: Ames Salmonella typhimurium, Strain/Indicator: TA100, Metabolic Activation: Rat, Liver, S9, Aroclor 1254, Method: Preincubation): inactive; negative. material tested was baytubes, multi-walled carbon-nanotubes. | mutagenic call (Test System: Ames Salmonella typhimurium, Strain/Indicator: TA102, Metabolic Activation: None, Method: Preincubation): inactive; negative. material tested was baytubes, multi-walled carbon-nanotubes. | mutagenic call (Test System: Ames Salmonella typhimurium, Strain/Indicator: TA102, Metabolic Activation: Rat, Liver, S9, Aroclor 1254, Method: Preincubation): inactive; negative. material tested was baytubes, multi-walled carbon-nanotubes. | mutagenic call [3]: inactive; negative. material tested was baytubes, multi-walled carbon-nanotubes. | mutagenic call (Test System: Ames Salmonella typhimurium, Strain/Indicator: TA1535, Metabolic Activation: Rat, Liver, S9, Aroclor 1254, Method: Preincubation): inactive; negative. material tested was baytubes, multi-walled carbon-nanotubes. | mutagenic call [4]: inactive; negative. material tested was baytubes, multi-walled carbon-nanotubes. | mutagenic call (Test System: Ames Salmonella typhimurium, Strain/Indicator: TA1537, Metabolic Activation: Rat, Liver, S9, Aroclor 1254, Method: Preincubation): inactive; negative. material tested was baytubes, multi-walled carbon-nanotubes.
